Assay results published in patent US20230233569A1 (Revolution Medicines, Inc., priority 2020, published 2023).
Values joined by “and” are separate entries in the source; they are usually repeats but may differ in a detail not shown here. Equal values may be shown once. Read-outs that look alike come from different tables or passages of the source.

Legend:
[1] = biological target: KRAS G12C (Homo sapiens, UniProt P01116+P62937, G12C); experiment: Disruption of BRAF RBD interaction with Ras (FRET / MOA assay, with Cyclophilin A); type: biochemical
Outline: (§1)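 TR-FRET readout: a drop in ratio relative to DMSO wells marks disruption of the K-Ras:BRAF RBD complex via compound-induced K-Ras–Cyclophilin A ternary complex. Dosing used ten 3-fold steps from 30 μM final, 3 h at 25 °C, then Eu-anti-His 10 nM plus APC-anti-GST 50 nM for another 1.5 h. Values are IC50s.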

[2] = biological target: KRAS G12D (Homo sapiens, UniProt P01116+P62937, G12D); experiment: as above; type: biochemical
Outline: as §1

[3] = biological target: KRAS G13C (Homo sapiens, UniProt P01116+P62937, G13C); experiment: as above; type: biochemical
Outline: as §1

[4] = biological target: KRAS G12S (Homo sapiens, UniProt P01116+P62937, G12S); experiment: as above; type: biochemical
Outline: as §1

[5] = biological target: NRAS G12C (Homo sapiens, UniProt P01111+P62937, G12C); experiment: as above; type: biochemical
[6] = biological target: KRAS G13D (Homo sapiens, UniProt P01116+P62937, G13D); experiment: as above; type: biochemical
Outline: as §1

[7] = biological target: KRAS WT (Homo sapiens, UniProt P01116+P62937); experiment: as above; type: biochemical
Outline: as §1

[8] = biological target: KRAS G12V (Homo sapiens, UniProt P01116+P62937, G12V); experiment: as above; type: biochemical
Outline: as §1

[9] = tested on: NCI-H358 (K-Ras G12C); experiment: CellTiter-Glo cell viability assay, 5-day treatment; type: cell-based; details: Homo sapiens, NCI-H358, H358, K-Ras G12C; read-out: Additional H358 Cell Viability assay data (K-Ras G12C, IC50)
Outline: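 Compounds were dispensed directly onto seeded cells and incubated for 5 days, then plates were equilibrated to room temperature for about 30 minutes before luminescence reading. Signals were expressed as percent of the mean DMSO control and fitted with a four-parameter logistic curve.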

[10] = tested on: K-Ras G12C (NCI-H358 cells); experiment: Potency assay: pERK (AlphaLISA SureFire or In-Cell Western); type: cell-based; details: Homo sapiens
Procedure: (§2) The purpose of this assay is to measure the ability of test compounds to inhibit K-Ras in cells. […] This procedure measures a decrease in cellular pERK in response to test compounds.
(§3) NCI-H358 cells were grown and maintained using media and procedures recommended by the ATCC. On the day prior to compound addition, cells were plated in 384-well cell culture plates (40 μl/well) and grown overnight in a 37° C., 5% CO2 incubator. Test compounds were prepared in 10, 3-fold dilutions in DMSO, with a high concentration of 10 mM. On the day of assay, 40 nL of test compound was added to each well of cell culture plate using an Echo550 liquid handler (LabCyte®). Concentrations of test compound were tested in duplicate. After compound addition, cells were incubated 4 hours at 37° C., 5% CO2. Following incubation, culture medium was removed and cells were washed once with phosphate buffered saline.
(§4) In some experiments, cellular pERK level was determined using the AlphaLISA SureFire Ultra p-ERK1/2 Assay Kit (PerkinElmer). Cells were lysed in 25 μL lysis buffer, with shaking at 600 RPM at room temperature. […] After a 2-hour incubation in the dark, 5 μL donor mix was added, plate was sealed, and incubated 2 hours at room temperature. Signal was read on an Envision plate reader (PerkinElmer) using standard AlphaLISA settings. Analysis of raw data was carried out in Excel (Microsoft) and Prism (GraphPad). Signal was plotted vs. the decadal logarithm of compound concentration, and IC50 was determined by fitting a 4-parameter sigmoidal concentration response model.
In other experiments, cellular pERK was determined by In-Cell Western. […] Fixed cells were washed 4 times for 5 minutes with TBS containing 0.1% Triton X-100 (TBST) and then blocked with 100 μL Odyssey blocking buffer (LI-COR) for 60 minutes at room temperature. […] Cells were washed 4 times for 5 minutes with TBST. Secondary antibody (IR-800CW rabbit, LI-COR, diluted 1:800) and DNA stain DRAQ5 (LI-COR, diluted 1:2000) were added and incubated 1-2 hours at room temperature. Cells were washed 4 times for 5 minutes with TBST. Plates were scanned on a LI-COR Odyssey CLx Imager. Analysis of raw data was carried out in Excel (Microsoft) and Prism (GraphPad). Signal was plotted vs. the decadal logarithm of compound concentration, and IC50 was determined by fitting a 4-parameter sigmoidal concentration response model.
as §2
as §3, with “mM. On day of” for “mM. On the day of”, “assay, 40 nl of test” for “assay, 40 nL of test”
as §4, with “μl” for “μL”, “sealed” for “sealed,”

[11] = KRAS G12C, read-out: KRAS G12C FRET data IC50
[12] = read-out: KRAS G12D FRET data, IC50
[13] = KRAS G13C, read-out: KRAS G13C FRET data IC50
[14] = read-out: KRAS G12S FRET data, IC50
[15] = NRAS G12C, read-out: NRAS G12C FRET data IC50
[16] = KRAS G13D, read-out: KRAS G13D FRET data IC50
[17] = KRAS WT, read-out: KRAS WT FRET data IC50
[18] = KRAS G12V, read-out: KRAS G12V FRET data IC50
[19] = NCI-H358, H358 KRAS G12C, read-out: pERK EC50

Sequence of KRAS G12V (P01116 1-169 isoform P01116-2 G12V limits assumed): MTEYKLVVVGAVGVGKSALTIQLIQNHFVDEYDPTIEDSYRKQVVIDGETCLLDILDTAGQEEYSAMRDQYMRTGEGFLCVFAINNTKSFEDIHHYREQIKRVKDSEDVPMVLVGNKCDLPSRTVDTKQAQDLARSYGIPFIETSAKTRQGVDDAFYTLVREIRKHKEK
Sequence of KRAS G12V (P62937 whole entry): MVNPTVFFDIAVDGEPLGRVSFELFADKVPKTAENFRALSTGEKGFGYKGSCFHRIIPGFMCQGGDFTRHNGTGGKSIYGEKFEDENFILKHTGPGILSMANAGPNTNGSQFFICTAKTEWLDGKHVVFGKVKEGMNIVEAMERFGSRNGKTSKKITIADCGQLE
Sequence of KRAS G13D (P01116 1-169 isoform P01116-2 G13D limits assumed): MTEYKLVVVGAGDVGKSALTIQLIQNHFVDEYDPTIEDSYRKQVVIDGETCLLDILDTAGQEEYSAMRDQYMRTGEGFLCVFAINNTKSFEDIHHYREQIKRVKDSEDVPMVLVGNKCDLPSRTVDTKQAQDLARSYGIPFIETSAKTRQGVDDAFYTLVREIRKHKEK
Sequence of KRAS G13D (P62937 whole entry): as the sequence (P62937 whole entry) above
Sequence of KRAS G12C (P01116 1-169 isoform P01116-2 G12C): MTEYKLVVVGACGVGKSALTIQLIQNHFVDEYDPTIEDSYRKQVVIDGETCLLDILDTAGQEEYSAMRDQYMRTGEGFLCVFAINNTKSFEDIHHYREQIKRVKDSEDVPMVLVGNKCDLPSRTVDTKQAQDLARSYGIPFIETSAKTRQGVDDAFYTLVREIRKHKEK
Sequence of KRAS G12C (P62937 whole entry): as the sequence (P62937 whole entry) above
Sequence of NRAS G12C (P01111 whole entry G12C): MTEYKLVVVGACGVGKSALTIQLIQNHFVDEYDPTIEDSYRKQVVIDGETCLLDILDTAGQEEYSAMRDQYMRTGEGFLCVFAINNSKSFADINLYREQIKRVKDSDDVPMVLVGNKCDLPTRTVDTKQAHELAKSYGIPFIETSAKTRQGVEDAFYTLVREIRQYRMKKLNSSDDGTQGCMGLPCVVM
Sequence of NRAS G12C (P62937 whole entry): as the sequence (P62937 whole entry) above
Sequence of KRAS G13C (P01116 1-169 isoform P01116-2 G13C): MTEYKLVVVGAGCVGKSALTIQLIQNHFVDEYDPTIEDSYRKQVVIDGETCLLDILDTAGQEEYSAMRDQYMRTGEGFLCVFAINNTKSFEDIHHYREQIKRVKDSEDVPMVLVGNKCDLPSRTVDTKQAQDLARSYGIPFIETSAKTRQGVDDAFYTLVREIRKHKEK
Sequence of KRAS G13C (P62937 whole entry): as the sequence (P62937 whole entry) above
Sequence of KRAS WT (P01116 1-169 isoform P01116-2 limits assumed): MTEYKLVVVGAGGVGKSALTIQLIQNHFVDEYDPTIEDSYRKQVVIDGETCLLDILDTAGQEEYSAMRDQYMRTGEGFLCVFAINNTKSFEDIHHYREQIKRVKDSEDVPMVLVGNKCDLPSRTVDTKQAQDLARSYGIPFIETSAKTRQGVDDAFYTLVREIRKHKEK
Sequence of KRAS WT (P62937 whole entry): as the sequence (P62937 whole entry) above
Sequence of KRAS G12D (P01116 1-169 isoform P01116-2 G12D limits assumed): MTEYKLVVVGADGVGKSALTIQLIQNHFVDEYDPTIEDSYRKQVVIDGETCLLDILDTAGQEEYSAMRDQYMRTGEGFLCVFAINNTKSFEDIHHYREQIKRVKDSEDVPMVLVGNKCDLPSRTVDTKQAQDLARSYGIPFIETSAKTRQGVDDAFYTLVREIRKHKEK
Sequence of KRAS G12D (P62937 whole entry): as the sequence (P62937 whole entry) above
Sequence of KRAS G12S (P01116 1-169 isoform P01116-2 G12S limits assumed): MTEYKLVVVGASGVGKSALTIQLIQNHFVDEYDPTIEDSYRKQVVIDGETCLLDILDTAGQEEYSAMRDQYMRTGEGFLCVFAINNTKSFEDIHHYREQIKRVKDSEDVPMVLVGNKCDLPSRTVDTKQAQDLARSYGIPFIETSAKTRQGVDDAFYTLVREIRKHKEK
Sequence of KRAS G12S (P62937 whole entry): as the sequence (P62937 whole entry) above

IC50 [1, 11] [µM]	IC50 [2, 12]	IC50 [3, 13]	IC50 [4, 14] [µM]	IC50 [5, 15] [µM]	IC50 [6, 16]	IC50 [7, 17]	IC50 [8, 18]	IC50 [9] [µM]	EC50 [10, 19] [µM]	Structure (SMILES)	IC50 ([1]; KRAS G12C FRET data IC50, KRAS G12C) [µM]	IC50 ([2]; KRAS G12D FRET data, IC50) [µM]	IC50 ([3]; KRAS G13C FRET data IC50, KRAS G13C) [µM]	IC50 ([4]; KRAS G12S FRET data, IC50) [µM]	IC50 ([5]; NRAS G12C FRET data IC50, NRAS G12C) [µM]	IC50 ([6]; KRAS G13D FRET data IC50, KRAS G13D) [µM]	IC50 ([7]; KRAS WT FRET data IC50, KRAS WT) [µM]	IC50 ([8]; KRAS G12V FRET data IC50, KRAS G12V) [µM]	EC50 ([10]; NCI-H358, read-out: pERK EC50) [µM]
0.1 to 1	1 to 10 µM	1 to 10 µM	1 to 10	0.1 to 1	1 to 10 µM	1 to 10 µM	1 to 10 µM	0.01 to 0.1	< 5	CCn1c(-c2cccnc2[C@H](C)OC)c2c3cc(ccc31)-c1csc(n1)C[C@H](NC(=O)[C@H](C(C)C)N(C)C(=O)[C@H]1CCN(C(=O)/C=C/CN(C)C)C1)C(=O)N1CCC[C@H](N1)C(=O)OCC(C)(C)C2 [Example A282]									
0.1 to 1	> 10 µM	1 to 10 µM	1 to 10	0.1 to 1	> 10 µM	1 to 10 µM	1 to 10 µM	0.01 to 0.1	< 5	CC#C[S+]([O-])N1CC[C@H](C(=O)N(C)[C@H](C(=O)N[C@H]2Cc3cccc(c3)-c3ccc4c(c3)c(c(-c3cccnc3[C@H](C)OC)n4CC)CC(C)(C)COC(=O)[C@@H]3CCCN(N3)C2=O)C2CCCC2)C1 (stereo partly drawn) [Example A310]									

Second part, the compound before the results:

Structure (SMILES)	IC50 [1, 11] [µM]	IC50 [2, 12]	IC50 [3, 13]	IC50 [4, 14] [µM]	IC50 [5, 15] [µM]	IC50 [6, 16]	IC50 [7, 17]	IC50 [8, 18]	IC50 [9] [µM]	EC50 [10, 19] [µM]	IC50 ([1]; KRAS G12C FRET data IC50, KRAS G12C) [µM]	IC50 ([2]; KRAS G12D FRET data, IC50) [µM]	IC50 ([3]; KRAS G13C FRET data IC50, KRAS G13C) [µM]	IC50 ([4]; KRAS G12S FRET data, IC50) [µM]	IC50 ([5]; NRAS G12C FRET data IC50, NRAS G12C) [µM]	IC50 ([6]; KRAS G13D FRET data IC50, KRAS G13D) [µM]	IC50 ([7]; KRAS WT FRET data IC50, KRAS WT) [µM]	IC50 ([8]; KRAS G12V FRET data IC50, KRAS G12V) [µM]	EC50 ([10]; NCI-H358, read-out: pERK EC50) [µM]
CCn1c(-c2cccnc2COC)c2c3cc(ccc31)-c1cc(O)cc(c1)C[C@H](NC(=O)[C@@H](C(C)C)N(C)C(=O)[C@H]1CCN(C(=O)C#CC(C)N3CCOCC3)C1)C(=O)N1CCC[C@H](N1)C(=O)OCC(C)(C)C2 (stereo partly drawn) [Example A200]	0.01 to 0.1	> 10 µM	1 to 10 µM	> 10	0.01 to 0.1	> 10 µM	> 10 µM	> 10 µM	0.1 to 1	< 5									
CCn1c(-c2cccnc2[C@H](C)OC)c2c3cc(ccc31)-c1cc(sn1)C[C@H](NC(=O)[C@H](C(C)C)N(C)C(=O)[C@@H]1CCN(C(=O)C#CCN3CCOCC3)C1)C(=O)N1CCC[C@H](N1)C(=O)OCC(C)(C)C2 [Example A201]	0.01 to 0.1	> 10 µM	1 to 10 µM	> 10	0.1 to 1	> 10 µM	> 10 µM	> 10 µM	0.01 to 0.1	< 5									
CCn1c(-c2cccnc2[C@H](C)OC)c2c3cc(ccc31)-c1cc(O)cc(c1)C[C@H](NC(=O)[C@H](C(C)C)N(C)C(=O)c1nc(NC(=O)/C=C/CN(C)C)cs1)C(=O)N1CCC[C@H](N1)C(=O)OCC(C)(C)C2 [Example A258]	0.1 to 1	1 to 10 µM and > 10 µM	< 0.01 µM and 0.01 to 0.1 µM	1 to 10	0.1 to 1	0.1 to 1 µM and 1 to 10 µM	0.1 to 1 µM and 1 to 10 µM	0.1 to 1 µM and 1 to 10 µM	0.1 to 1	< 5									
C=CC(=O)N1CC[C@H](C(=O)N(C)[C@H](C(=O)N[C@H]2Cc3cccc(c3)-c3ccc4c(c3)c(c(-c3cccnc3[C@H](C)OC)n4CC)CC(C)(C)COC(=O)[C@@H]3CCCN(O3)C2=O)C(C)C)C1 [Example A284]									0.1 to 1		0.1 to 1	> 10	1 to 10	> 10	1 to 10	> 10	> 10	> 10	< 5
